Data published in the CheMixHub ionic liquid set.
Several values for one entry are separate records, joined by “and”; a condition that tells them apart may be missing. Equal values may be shown once.

Assay: xn = mol fraction of the nth substance listed

CCCCCCCCCCCCCCCC[n+]1ccccc1.O=C([O-])C(O)c1ccccc1 + NCC(=O)O + O
electrical conductivity [S/m], 101 kPa
Conditions	293.15 K	298.15 K	303.15 K	308.15 K	313.15 K
x1 = 1.08e-06, x2 = 0	0.00061	0.00068	0.00076	0.00083	0.0009
x1 = 1.09e-06, x2 = 0.001799	0.00103	0.00118	0.0013	0.0015	0.0017
x1 = 1.26e-06, x2 = 0.0009002	0.00083	0.00094	0.00106	0.0012	0.0013
x1 = 1.98e-06, x2 = 0	0.001	0.0012	0.0013	0.0014	0.0016
x1 = 2.17e-06, x2 = 0.001799	0.00151	0.00172	0.0019	0.0022	0.0024
x1 = 2.35e-06, x2 = 0.0009002	0.00125	0.00142	0.0016	0.0018	0.0019
x1 = 2.88e-06, x2 = 0	0.00147	0.0016	0.0018	0.002	0.0022
x1 = 3.26e-06, x2 = 0.001799	0.00188	0.0022	0.0024	0.0027	0.003
x1 = 3.43e-06, x2 = 0.0009002	0.00163	0.00185	0.0021	0.0023	0.0025
x1 = 3.96e-06, x2 = 0	0.0019	0.0022	0.0024	0.0026	0.0029
x1 = 4.35e-06, x2 = 0.001799	0.00233	0.00265	0.0029	0.0033	0.0036
x1 = 4.52e-06, x2 = 0.0009002	0.00209	0.00237	0.0026	0.0029	0.0032
x1 = 4.69e-06, x2 = 0	0.0023	0.0026	0.0029	0.0031	0.0035
x1 = 5.26e-06, x2 = 0.001799	0.00273	0.00308	0.0034	0.0038	0.0042
x1 = 5.78e-06, x2 = 0.0009002	0.00258	0.00291	0.0032	0.0036	0.004
x1 = 5.95e-06, x2 = 0	0.00281	0.0032	0.0035	0.0038	0.0042
x1 = 6.52e-06, x2 = 0.001799	0.0032	0.00363	0.004	0.0045	0.005
x1 = 7.05e-06, x2 = 0.0009002	0.00305	0.00343	0.0038	0.0042	0.0046
x1 = 7.21e-06, x2 = 0	0.00341	0.0038	0.0042	0.0046	0.0051
x1 = 8.16e-06, x2 = 0.001799	0.00379	0.00429	0.0048	0.0053	0.0059
x1 = 8.31e-06, x2 = 0.0009002	0.00355	0.00401	0.0045	0.0049	0.0054
x1 = 8.83e-06, x2 = 0	0.00406	0.0046	0.005	0.0055	0.006
x1 = 9.79e-06, x2 = 0.001799	0.00435	0.00491	0.0055	0.0061	0.0068
x1 = 9.94e-06, x2 = 0.0009002	0.00404	0.00455	0.0051	0.0056	0.0063
x1 = 1.045e-05, x2 = 0	0.00469	0.0053	0.0058	0.0065	0.0071
x1 = 1.124e-05, x2 = 0.001799	0.00472	0.00536	0.006	0.0067	0.0075
x1 = 1.138e-05, x2 = 0.0009002	0.00443	0.00502	0.00561	0.0062	0.007
x1 = 1.207e-05, x2 = 0	0.00516	0.0058	0.0064	0.0071	0.0079
x1 = 1.269e-05, x2 = 0.001799	0.00515	0.00581	0.0065	0.0073	0.0081
x1 = 1.283e-05, x2 = 0.0009002	0.00481	0.00543	0.00607	0.0068	0.0076
x1 = 1.351e-05, x2 = 0	0.00562	0.00631	0.007	0.0077	0.0085
x1 = 1.41e-05, x2 = 0.0009002	0.00512	0.0058	0.00647	0.0072	0.008
x1 = 1.414e-05, x2 = 0.001799	0.00553	0.00625	0.007	0.0078	0.0087
x1 = 1.478e-05, x2 = 0	0.00603	0.0068	0.0075	0.0083	0.0092
x1 = 1.54e-05, x2 = 0.001799	0.00584	0.0066	0.0074	0.0083	0.0092
x1 = 1.554e-05, x2 = 0.0009002	0.0055	0.00621	0.0069	0.0077	0.0086
x1 = 1.622e-05, x2 = 0	0.00644	0.0072	0.008	0.0089	0.0098
x1 = 1.667e-05, x2 = 0.001799	0.00618	0.00697	0.0078	0.0087	0.0097
x1 = 1.681e-05, x2 = 0.0009002	0.0058	0.00657	0.0073	0.0082	0.0091
x1 = 1.766e-05, x2 = 0	0.00687	0.0077	0.0085	0.0094	0.0104

COP(=O)([O-])OC.Cn1cc[n+](C)c1 + CCCO + O
100 kPa
Conditions	viscosity [mPa·s]
298.15 K, x2 = 0.249, x3 = 0.2451	90
323.15 K, x2 = 0.15, x3 = 0.1498	81
333.15 K, x2 = 0.1, x3 = 0.0998	85

CCCC[N+](C)(C)C.O=S(=O)([N-]S(=O)(=O)C(F)(F)F)C(F)(F)F + CC(O)C(C)O
Conditions	viscosity [mPa·s]
328.15 K, 101 kPa, x2 = 0	30

C[S+](C)C.O=S(=O)([N-]S(=O)(=O)C(F)(F)F)C(F)(F)F + CC#N
101 kPa
Conditions	electrical conductivity
264.85 K, x2 = 0.87	3.61 S/m
273.15 K, x2 = 0.87	4.06 S/m
298.15 K, x1 = 0.0001	0.027 S/m and 0.059 S/m
298.15 K, x1 = 0.0005	0.208 S/m
323.15 K, x2 = 0.87	6.94 S/m

CCCCCC[n+]1ccn(C)c1.F[B-](F)(F)F + CC(C)(C)O
298.15 K, 101 kPa
Conditions	viscosity [mPa·s]
x2 = 0.3074	69.2
x2 = 0.8007	13.92

CCC[NH3+].O=[N+]([O-])[O-] + CCCC[NH3+].O=[N+]([O-])[O-]
101 kPa, frequency 0.00293 MHz, x1 = 0.5
Conditions	electrical conductivity [S/m]
293.15 K	0.496
313.15 K	1.02
323.15 K	1.36

101 kPa, x1 = 0.5
Conditions	viscosity [mPa·s]
293.15 K	100.4
313.15 K	45.4
323.15 K	32.6
328.15 K	28.1
343.15 K	18.8

CC(C)=O + CCCC[n+]1ccn(C)c1.O=S(=O)([N-]S(=O)(=O)C(F)(F)F)C(F)(F)F
296.35 K, 100 kPa, frequency 0.01 MHz
Conditions	electrical conductivity [S/m]
x2 = 0.01616	1.1
x2 = 0.0257	2.71
x2 = 0.0419	4.22
x2 = 0.07374	5.7
x2 = 0.1478	4.72

CCCCn1cc[n+](CCOCCOCCOCCOCC[n+]2ccn(CCCC)c2)c1.N#C[N-]C#N.N#C[N-]C#N + CC[n+]1ccn(C)c1.N#C[N-]C#N + O=S(=O)([N-]S(=O)(=O)C(F)(F)F)C(F)(F)F.[Li+]
100 kPa, x1 = 0.2104, x2 = 0.6943
Conditions	electrical conductivity [S/m]
298 K	0.471
303 K	0.549
313 K	0.79
323 K	1.05
333 K	1.37
343 K	1.67

CCCCCC[n+]1ccn(C)c1.F[B-](F)(F)F + O
Conditions	viscosity [mPa·s]
298.15 K, 100 kPa, x1 = 0.0153	2.79
